“And” between values parts separate entries of the source, which are not always exact repeats. Identical values can stand only once.
Experiments:
PTP1B [1] = target: T1, PTP1B (Homo sapiens, UniProt P18031); assay: PTP1B inhibitory assay (p-NPP substrate); type: biochemical; conditions: absorbance at 405 nm, mean ± SD, three independent experiments, read-out: IC50 against PTP1B
T1 sequence (P18031 1-435): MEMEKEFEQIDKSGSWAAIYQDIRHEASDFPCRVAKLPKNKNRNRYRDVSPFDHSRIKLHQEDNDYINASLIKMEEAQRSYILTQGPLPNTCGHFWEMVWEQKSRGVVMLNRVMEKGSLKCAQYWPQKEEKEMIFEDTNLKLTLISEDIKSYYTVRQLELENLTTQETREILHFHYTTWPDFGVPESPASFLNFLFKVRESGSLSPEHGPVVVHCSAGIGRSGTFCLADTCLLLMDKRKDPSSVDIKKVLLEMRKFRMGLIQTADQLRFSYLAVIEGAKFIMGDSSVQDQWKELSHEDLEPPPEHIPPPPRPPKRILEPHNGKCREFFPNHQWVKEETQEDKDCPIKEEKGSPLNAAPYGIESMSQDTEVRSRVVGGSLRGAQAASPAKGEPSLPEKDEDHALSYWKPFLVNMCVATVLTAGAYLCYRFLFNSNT
Protocol: The p-nitrophenyl phosphate (p-NPP) was used as a substrate to evaluate enzyme inhibition assays, following a previously established protocol. The final assay volume was 100 μL. The 75 μL reaction buffer containing 50 mM HEPES, 100 mM NaCl, 1 mM EDTA, and 1 mM dithiothreitol, 10 μL protein, and 5 μL sample were added to a 96-well plate and incubated at room temperature for 15 min. Subsequently, 10 μL of reaction buffer containing p-NPP was added to the reaction system. Sodium orthovanadate (Na₃VO₄) and dimethyl sulfoxide (DMSO) were used as the positive and negative controls, respectively. Enzymatic activity was determined by measuring absorbance at 405 nm. The half-maximal inhibitory concentration (IC₅₀) values were obtained from three independent experiments. The percentage of inhibition was calculated using the following equation: ODcontrol-ODblank-ODcompound-ODblank/ODcontrol-ODblank×100%

PTP1B [2] = target: T1, PTP1B; assay: Inhibition kinetic analysis (Lineweaver–Burk); type: biochemical; conditions: for Type of inhibition of PTP1B: Lineweaver–Burk double-reciprocal plot; for Vmax in presence of compound: p-NPP substrate, increasing inhibitor concentration
Protocol: The experimental procedure followed that described in the enzyme inhibition assay. The data were represented using Lineweaver–Burk double-reciprocal plots. The inhibition constants (Ki and Kis) were determined from the secondary plots of the slopes and intercepts derived from the Lineweaver–Burk plots.

Compound	IC50 (PTP1B [1])	Type of inhibition of PTP1B (PTP1B [2])	Vmax in presence of compound (PTP1B [2])
CC1OC(=O)c2c(O)c(Cl)c3c(c2C1O)CC12OC4(O)CCC1(C)C(O)(CCC2(C)O3)C4(C)C (stereo not drawn) [Compound 7, talarine Q]	15.6 ± 1.6 µM		
CC1Cc2c3c(cc(O)c2C(=O)O1)OC1(C)CCC(O)C2(C)CCC(=O)OC12C3 (stereo not drawn) [Compound 1, talarine K]	16.5 ± 0.6 µM		
COC1(C(C)C)CCC2(C)C(=O)CCC3(C)Oc4c(Cl)c(O)c5c(c4CC32O1)CC(C)OC5=O (stereo not drawn) [Compound 3, talarine M]	8.54 µM and 17.6 µM		

More lines, in order of falling IC50 (PTP1B [1]), values ahead:

IC50 (PTP1B [1])	Type of inhibition of PTP1B (PTP1B [2])	Vmax in presence of compound (PTP1B [2])	Compound
14.3 ± 0.86 µM			CC1Cc2c3c(c(Cl)c(O)c2C(=O)O1)OC1(C)CCC2(O)OC4(C(C)(C)O)CCC2(C)C1(C3)O4 (stereo not drawn) [Compound 6, talarine P]
8.54 ± 1.52 µM			COC1(C(C)C)CCC2(C)C(=O)CCC3(C)Oc4cc(O)c5c(c4CC32O1)C(OC(C)=O)C(C)OC5=O (stereo not drawn) [Compound 4, talarine N]
6.57 ± 1.47 µM			CC(=O)OC1c2c3c(c(Cl)c(O)c2C(=O)OC1C)OC1(C)CCC2(O)OC4(C(C)(C)O)CCC2(C)C1(C3)O4 (stereo not drawn) [Compound 5, talarine O]
3.03 ± 2.25 µM	competitive inhibitors	unchanged	CC(=O)O[C@@H]1c2c3c(cc(O)c2C(=O)O[C@@H]1C)O[C@]1(C)CCC(=O)[C@]2(C)CC=C(C(C)C)O[C@]12C3 [Compound 12, talaromyolide J]
1.74 ± 3.81 µM	competitive inhibitors	unchanged	CC1Cc2c3c(cc(O)c2C(=O)O1)OC1(C)CCC(=O)C2(C)CC=C(C(C)(C)O)OC12C3 (stereo not drawn) [Compound 2, talarine L]

From PMC12274187, “Novel polycyclic meroterpenoids with protein tyrosine phosphatase 1B inhibitory activity isolated from desert-derived fungi Talaromyces sp. HMT-8” (Natural Products and Bioprospecting, 2025)
